Laboratory results taken from PubChem BioAssay AID1918996 (Molecular Pharmacology Branch, DTP, NCI, 2023).
pIC50: −log10 of the molar value. Each block holds one compound with its values, some of them ahead of it.

Test system: 349418-098-R-PDC complex spheroid growth
Test: Anticancer human tumor 349418-098-R-PDC patient-derived lung adenocarcinoma cell line growth inhibition [AhR]
Details: for pIC50: curve of first compound; for viability, T/C: stronger effect = lower value
Summary of the method: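 Complex tumor spheroids co-cultured with HUVEC and human MSC stroma; AhR antagonists tested in combination with standard-of-care and investigational agents. Top concentration at or near clinical Cmax (else 10 microM), half-log dilutions; growth expressed as percent test/control.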

[1] = second compound 0.1 µM, first compound 0.000949 µM
[2] = second compound 0.1 µM, first compound 0.003 µM
[3] = second compound 0.1 µM, first compound 0.00949 µM
[4] = second compound 0.1 µM, first compound 0.03 µM
[5] = second compound 0.1 µM, first compound 0.0949 µM
[6] = second compound 0.1 µM, first compound 0.3 µM
[7] = second compound 0.316 µM, first compound 0.000949 µM
[8] = second compound 0.316 µM, first compound 0.003 µM
[9] = second compound 0.316 µM, first compound 0.00949 µM
[10] = second compound 0.316 µM, first compound 0.03 µM
[11] = second compound 0.316 µM, first compound 0.0949 µM
[12] = second compound 0.316 µM, first compound 0.3 µM
[13] = second compound 1 µM, first compound 0.000949 µM
[14] = second compound 1 µM, first compound 0.003 µM
[15] = second compound 1 µM, first compound 0.00949 µM
[16] = second compound 1 µM, first compound 0.03 µM
[17] = second compound 1 µM, first compound 0.0949 µM
[18] = second compound 1 µM, first compound 0.3 µM
[19] = second compound 3.16 µM, first compound 0.000949 µM
[20] = second compound 3.16 µM, first compound 0.003 µM
[21] = second compound 3.16 µM, first compound 0.00949 µM
[22] = second compound 3.16 µM, first compound 0.03 µM
[23] = second compound 3.16 µM, first compound 0.0949 µM
[24] = second compound 3.16 µM, first compound 0.3 µM
[25] = second compound 10 µM, first compound 0.000949 µM
[26] = second compound 10 µM, first compound 0.003 µM
[27] = second compound 10 µM, first compound 0.00949 µM
[28] = second compound 10 µM, first compound 0.03 µM
[29] = second compound 10 µM, first compound 0.0949 µM
[30] = second compound 10 µM, first compound 0.3 µM
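Also: spheroids exposed to agents for seven days before luminescence viability read.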
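For viability, T/C in this document: spheroids also contain HUVEC endothelial cells and human MSC stroma.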

pIC50 (second compound 0.1 µM): 8.85
pIC50 (second compound 0.316 µM): 8.89
pIC50 (second compound 1 µM): 8.97
pIC50 (second compound 3.16 µM): > 9.02
pIC50 (second compound 10 µM): > 9.02
SMILES: CC(C)CC(NC(=O)C(Cc1ccccc1)NC(=O)c1cnccn1)B(O)O (stereo not given) + Cc1cncc(-c2nc(NCCc3c[nH]c4ccccc34)c3ncn(C(C)C)c3n2)c1
viability, T/C [1]: 70.6%
viability, T/C [2]: 11.2%
viability, T/C [3]: 1.67%
viability, T/C [4]: 0.88%
viability, T/C [5]: 0.78%
viability, T/C [6]: 0.75%
viability, T/C [7]: 64.6%
viability, T/C [8]: 8.44%
viability, T/C [9]: 1.59%
viability, T/C [10]: 0.9%
viability, T/C [11]: 0.92%
viability, T/C [12]: 0.62%
viability, T/C [13]: 54.1%
viability, T/C [14]: 9.85%
viability, T/C [15]: 1.7%
viability, T/C [16]: 0.85%
viability, T/C [17]: 0.77%
viability, T/C [18]: 1.06%
viability, T/C [19]: 20.6%
viability, T/C [20]: 5.89%
viability, T/C [21]: 1.01%
viability, T/C [22]: 0.57%
viability, T/C [23]: 0.58%
viability, T/C [24]: 0.62%
viability, T/C [25]: 2.07%
viability, T/C [26]: 1.16%
viability, T/C [27]: 0.23%
viability, T/C [28]: 0.14%
viability, T/C [29]: 0.11%
viability, T/C [30]: 0.15%

pIC50 (second compound 0.1 µM): > 9.02
pIC50 (second compound 0.316 µM): > 9.02
pIC50 (second compound 1 µM): > 9.02
pIC50 (second compound 3.16 µM): > 9.02
pIC50 (second compound 10 µM): > 9.02
SMILES: CCc1c2c(nc3ccc(O)cc13)-c1cc3c(c(=O)n1C2)COC(=O)[C@]3(O)CC + Cc1cncc(-c2nc(NCCc3c[nH]c4ccccc34)c3ncn(C(C)C)c3n2)c1
viability, T/C [1]: 49.5%
viability, T/C [2]: 24.2%
viability, T/C [3]: 6.34%
viability, T/C [4]: 3.54%
viability, T/C [5]: 2.3%
viability, T/C [6]: 1.59%
viability, T/C [7]: 47.7%
viability, T/C [8]: 16.8%
viability, T/C [9]: 5.66%
viability, T/C [10]: 3.5%
viability, T/C [11]: 2.11%
viability, T/C [12]: 1.51%
viability, T/C [13]: 41.9%
viability, T/C [14]: 14.4%
viability, T/C [15]: 5.54%
viability, T/C [16]: 3.53%
viability, T/C [17]: 2.48%
viability, T/C [18]: 1.41%
viability, T/C [19]: 12.8%
viability, T/C [20]: 6.98%
viability, T/C [21]: 3.19%
viability, T/C [22]: 2.37%
viability, T/C [23]: 1.61%
viability, T/C [24]: 1.27%
viability, T/C [25]: 1.19%
viability, T/C [26]: 1.44%
viability, T/C [27]: 0.76%
viability, T/C [28]: 0.65%
viability, T/C [29]: 0.41%
viability, T/C [30]: 0.29%

pIC50 (second compound 0.1 µM): 6.71
pIC50 (second compound 0.316 µM): 6.62
pIC50 (second compound 1 µM): 6.57
pIC50 (second compound 3.16 µM): > 7.50
pIC50 (second compound 10 µM): > 7.50
SMILES: COc1cc(Nc2ncc3c(n2)-c2ccc(Cl)cc2C(c2c(F)cccc2OC)=NC3)ccc1C(=O)O + Cc1cncc(-c2nc(NCCc3c[nH]c4ccccc34)c3ncn(C(C)C)c3n2)c1
viability, T/C (second compound 0.1 µM, first compound 0.0316 µM): 68.8%
viability, T/C (second compound 0.1 µM, first compound 0.1 µM): 58.2%
viability, T/C (second compound 0.1 µM, first compound 0.316 µM): 42.4%
viability, T/C (second compound 0.1 µM, first compound 1 µM): 40.8%
viability, T/C (second compound 0.1 µM, first compound 3.16 µM): 36.3%
viability, T/C (second compound 0.1 µM, first compound 10 µM): 33.1%
viability, T/C (second compound 0.316 µM, first compound 0.0316 µM): 72.6%
viability, T/C (second compound 0.316 µM, first compound 0.1 µM): 68.6%
viability, T/C (second compound 0.316 µM, first compound 0.316 µM): 44.4%
viability, T/C (second compound 0.316 µM, first compound 1 µM): 47.8%
viability, T/C (second compound 0.316 µM, first compound 3.16 µM): 41.1%
viability, T/C (second compound 0.316 µM, first compound 10 µM): 43.9%
viability, T/C (second compound 1 µM, first compound 0.0316 µM): 67.7%
viability, T/C (second compound 1 µM, first compound 0.1 µM): 57.3%
viability, T/C (second compound 1 µM, first compound 0.316 µM): 46.7%
viability, T/C (second compound 1 µM, first compound 1 µM): 48.8%
viability, T/C (second compound 1 µM, first compound 3.16 µM): 40.3%
viability, T/C (second compound 1 µM, first compound 10 µM): 44.8%
viability, T/C (second compound 3.16 µM, first compound 0.0316 µM): 19.7%
viability, T/C (second compound 3.16 µM, first compound 0.1 µM): 20%
viability, T/C (second compound 3.16 µM, first compound 0.316 µM): 14.1%
viability, T/C (second compound 3.16 µM, first compound 1 µM): 12.7%
viability, T/C (second compound 3.16 µM, first compound 3.16 µM): 14.7%
viability, T/C (second compound 3.16 µM, first compound 10 µM): 17.9%
viability, T/C (second compound 10 µM, first compound 0.0316 µM): 3.34%
viability, T/C (second compound 10 µM, first compound 0.1 µM): 2.89%
viability, T/C (second compound 10 µM, first compound 0.316 µM): 2.53%
viability, T/C (second compound 10 µM, first compound 1 µM): 2.17%
viability, T/C (second compound 10 µM, first compound 3.16 µM): 2.59%
viability, T/C (second compound 10 µM, first compound 10 µM): 3.53%
